Assay results taken from PMC7898037, “Improving mitochondria and ER stability helps eliminate upper motor neuron degeneration that occurs due to mSOD1 toxicity and TDP‐43 pathology” (Clinical and Translational Medicine, 2021).

Assay: Weight of the mice
Assay type: in vivo
Set-up: Mean Diff. of weight, vehicle vs. NU-9: unit not given here
Conditions: for Mean weight (Mean 2): WT-UeGFP mice, in g (unit assumed); for Weight, Average: WT-UeGFP
Procedure: hSOD1^G93A‐UeGFP, prpTDP‐43^A315T‐UeGFP and WT‐UeGFP mice were weighed and the required NU‐9 dose per weight was calculated (20 or 100 mg/kg), which was administered once daily by oral gavage, starting at postnatal day (P)60 and continuing until P120. Animals from the untreated group received the vehicle (NMP and olive oil) only. For oral administration purposes, 20 ga × 38 mm plastic feeding tubes were used (Instech Laboratories, Inc). The gavage tip was inserted into the mouth directly over the tongue and into the pharynx. While observing the swallowing reflex, the tip was safely and smoothly slid into the esophagus. Once the administration was completed, the gavage tip was pulled straight out.
Behavior data were collected from hSOD1^G93A‐UeGFP and WT‐UeGFP mice (starting at P60 and every 7 days until P116) and from prpTDP‐43^A315T‐UeGFP mice (at P60, P90, and P120) with the following number of mice for each group: WT‐UeGFP vehicle (n = 10), hSOD1^G93A‐UeGFP vehicle (n = 6), WT‐UeGFP 20 mg/kg/day NU‐9 (n = 5), hSOD1^G93A‐UeGFP 20 mg/kg/day NU‐9 (n = 7), WT‐UeGFP 100 mg/kg/day NU‐9 (n = 11), hSOD1^G93A‐UeGFP 100 mg/kg/day NU‐9 (n = 9), prpTDP‐43^A315T‐UeGFP untreated (n ≥ 3), and prpTDP‐43^A315T‐UeGFP 100 mg/kg/day NU‐9 (n = 4) (Table S3).

C[C@H](Oc1cc(C(F)(F)F)cc(C(F)(F)F)c1)C1CC(=O)CC(=O)C1 [NU‐9]
Mean Diff. of weight, vehicle vs. NU-9 (WT-UeGFP (vehicle) vs. WT-UeGFP (NU-9 20 mg/kg/day), P60, Tukey's multiple comparisons test): -0.6
Mean Diff. of weight, vehicle vs. NU-9 (WT-UeGFP (vehicle) vs. WT-UeGFP (NU-9 20 mg/kg/day), P67, Tukey's multiple comparisons test): -1.3
Mean Diff. of weight, vehicle vs. NU-9 (WT-UeGFP (vehicle) vs. WT-UeGFP (NU-9 20 mg/kg/day), P74, Tukey's multiple comparisons test): -0.9
Mean Diff. of weight, vehicle vs. NU-9 (WT-UeGFP (vehicle) vs. WT-UeGFP (NU-9 20 mg/kg/day), P81, Tukey's multiple comparisons test): -0.5
Mean Diff. of weight, vehicle vs. NU-9 (WT-UeGFP (vehicle) vs. WT-UeGFP (NU-9 20 mg/kg/day), P88, Tukey's multiple comparisons test): -0.1
Mean Diff. of weight, vehicle vs. NU-9 (WT-UeGFP (vehicle) vs. WT-UeGFP (NU-9 20 mg/kg/day), P95, Tukey's multiple comparisons test): 0
Mean Diff. of weight, vehicle vs. NU-9 (WT-UeGFP (vehicle) vs. WT-UeGFP (NU-9 20 mg/kg/day), P102, Tukey's multiple comparisons test): -0.2
Mean Diff. of weight, vehicle vs. NU-9 (WT-UeGFP (vehicle) vs. WT-UeGFP (NU-9 20 mg/kg/day), P109, Tukey's multiple comparisons test): -1
Mean Diff. of weight, vehicle vs. NU-9 (WT-UeGFP (vehicle) vs. WT-UeGFP (NU-9 20 mg/kg/day), P116, Tukey's multiple comparisons test): -1.267
Mean Diff. of weight, vehicle vs. NU-9 (WT-UeGFP (vehicle) vs. WT-UeGFP (NU-9 100 mg/kg/day), P60, Tukey's multiple comparisons test): -0.01818
Mean Diff. of weight, vehicle vs. NU-9 (WT-UeGFP (vehicle) vs. WT-UeGFP (NU-9 100 mg/kg/day), P67, Tukey's multiple comparisons test): -0.7545
Mean Diff. of weight, vehicle vs. NU-9 (WT-UeGFP (vehicle) vs. WT-UeGFP (NU-9 100 mg/kg/day), P74, Tukey's multiple comparisons test): -0.2818
Mean Diff. of weight, vehicle vs. NU-9 (WT-UeGFP (vehicle) vs. WT-UeGFP (NU-9 100 mg/kg/day), P81, Tukey's multiple comparisons test): -0.9364
Mean Diff. of weight, vehicle vs. NU-9 (WT-UeGFP (vehicle) vs. WT-UeGFP (NU-9 100 mg/kg/day), P88, Tukey's multiple comparisons test): -0.2091
Mean Diff. of weight, vehicle vs. NU-9 (WT-UeGFP (vehicle) vs. WT-UeGFP (NU-9 100 mg/kg/day), P95, Tukey's multiple comparisons test): -0.2
Mean Diff. of weight, vehicle vs. NU-9 (WT-UeGFP (vehicle) vs. WT-UeGFP (NU-9 100 mg/kg/day), P102, Tukey's multiple comparisons test): -0.5636
Mean Diff. of weight, vehicle vs. NU-9 (WT-UeGFP (vehicle) vs. WT-UeGFP (NU-9 100 mg/kg/day), P109, Tukey's multiple comparisons test): -0.2545
Mean Diff. of weight, vehicle vs. NU-9 (WT-UeGFP (vehicle) vs. WT-UeGFP (NU-9 100 mg/kg/day), P116, Tukey's multiple comparisons test): -0.7576
Mean weight (Mean 2) (NU-9 20 mg/kg/day, P60): 18.4
Mean weight (Mean 2) (NU-9 20 mg/kg/day, P67): 19
Mean weight (Mean 2) (NU-9 20 mg/kg/day, P74): 18.8
Mean weight (Mean 2) (NU-9 20 mg/kg/day, P81): 18.2
Mean weight (Mean 2) (NU-9 20 mg/kg/day, P88): 18.8
Mean weight (Mean 2) (NU-9 20 mg/kg/day, P95): 18.8
Mean weight (Mean 2) (NU-9 100 mg/kg/day, P60): 17.82
Mean weight (Mean 2) (NU-9 100 mg/kg/day, P67): 18.45
Mean weight (Mean 2) (NU-9 100 mg/kg/day, P74): 18.18
Mean weight (Mean 2) (NU-9 100 mg/kg/day, P81): 18.64
Mean weight (Mean 2) (NU-9 100 mg/kg/day, P88): 18.91
Mean weight (Mean 2) (NU-9 100 mg/kg/day, P95): 19
Weight, Average (NU-9 20 mg/kg/day po, P60): 18.4 g
Weight, Average (NU-9 20 mg/kg/day po, P67): 19 g
Weight, Average (NU-9 20 mg/kg/day po, P74): 18.8 g
Weight, Average (NU-9 20 mg/kg/day po, P81): 18.2 g
Weight, Average (NU-9 20 mg/kg/day po, P88): 18.8 g
Weight, Average (NU-9 20 mg/kg/day po, P95): 18.8 g
Weight, Average (NU-9 20 mg/kg/day po, P102): 19 g
Weight, Average (NU-9 20 mg/kg/day po, P109): 20.2 g
Weight, Average (NU-9 20 mg/kg/day po, P116): 20.6 g
Weight, Average (NU-9 100 mg/kg/day po, P60): 17.8182 g
Weight, Average (NU-9 100 mg/kg/day po, P67): 18.6 g
Weight, Average (NU-9 100 mg/kg/day po, P74): 18.1 g
Weight, Average (NU-9 100 mg/kg/day po, P81): 18.7 g
Weight, Average (NU-9 100 mg/kg/day po, P88): 18.9 g
Weight, Average (NU-9 100 mg/kg/day po, P95): 19 g
Weight, Average (NU-9 100 mg/kg/day po, P102): 19.5 g
Weight, Average (NU-9 100 mg/kg/day po, P109): 19.6 g
Weight, Average (NU-9 100 mg/kg/day po, P116): 20.3 g
